In patent publication US8987338B2, “Active ingredient of a medicinal agent, a medicinal agent, a pharmaceutical composition and method for treating dementia syndrome patients” (priority 2007, dated 2015):

Experiments:
[1] = test system: patients with Parkinson's syndrome; experiment: Clinical trial: unified scale for evaluation of Parkinsonism; format: in vivo, human; settings: 3 months of treatment
Experimental: The efficacy of the treatment of Alzheimer-type dementias with marked intellectual-mnestic memory loss with polyprenols of formula (1) and a comparison of the efficacy of Ropren and Gliatilin was studied in patients during a 3-month course of treatment. Treatment efficacy on various functions before and after the treatment was assessed using the international scale MMSE ((evaluation of mental status—Mini-Mental State Examination, MMSE) Folstcin et al, 1975), “list with symptoms” questionnaire, unified scale for evaluation of Parkinsonism, EEG data, and biochemical parameters of the blood.
After treatment with Ropren, the Parkinson's syndrome decreased (on average by 5 points) in almost all patients, i.e., in 23 out of 25 patients or in 92%. This positive effect was found as early as 1 month after commencement of Ropren therapy. In the case of Gliatilin, improvement of Parkinson's syndrome was less pronounced (on average by 3 points) using the Parkinsonism rating scale.

[2] = test system: patients with vascular dementia of the Alzheimer's type; experiment: Clinical trial: electroencephalography (EEG) before and after therapy; format: in vivo, human; settings: before vs after treatment (about 3 months), individual patients or group
Experimental: MMSE scale (parameter of evaluation of intellectually-mnestic functions of a patient before and after treatment) was used for the evaluation of intellect. […] Electroencephalography (EEG) was performed in 12 patients (48%) before and after the Ropren therapy.

## C[N+](C)(C)CCOP(=O)([O-])OC[C@H](O)CO [Gliatilin, choline alfoscerate]
[1]
  average decrease of Parkinson's syndrome on Parkinsonism rating scale: 3 points
[2]
  Changes in EEG: No changes
